Patent publication US20210169892A1, “MODULATORS OF THE INTEGRATED STRESS PATHWAY” (Calico Life Sciences LLC, priority 2017, published 2021)

System: HEK293T cells carrying the ATF4 luciferase reporter
Experiment: ATF4-Luc assay (in vitro model of vanishing white matter disease)
Type: cell-based
Details: Homo sapiens, HEK-293T; HEK293T cells with ATF4 luciferase reporter, 1 μg/mL tunicamycin, 7 hours, One Glo luminescence
Method in brief: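 Compound at 200 nM and tunicamycin at 1 μg/mL were given together for 7 h to HEK293T cells stably transduced with an ATF4 5′-UTR-driven firefly luciferase reporter. Read-out by luminescence, reported as EC50.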

Compound | EC50 [nM]
O=C(COc1ccc(Cl)c(F)c1)NC12CC(NC(=O)[C@@H]3COc4ccccc4O3)(C1)C2 [Compound 125, (2S)—N-{3-[2-(4-chloro-3-fluorophenoxy)acetamido]bicyclo[1.1.1]pentan-1-yl}-2,3-dihydro-1,4-benzodioxine-2-carboxamide] | 50 to 250
O=C(COc1ccc(Cl)c(F)c1)NC12CC(NC(=O)C3CN(S(=O)(=O)c4ccc(F)cc4)c4cc(Cl)ccc4O3)(C1)C2 (stereo not drawn) [Compound 166, 6-chloro-N-{3-[2-(4-chloro-3-fluorophenoxy)acetamido]bicyclo[1.1.1]pentan-1-yl}-4-(4-fluorobenzene-1-sulfonyl)-3,4-dihydro-2H-1,4-benzoxazine-2-carboxamide] | 500 to 2000
O=C(COc1ccc(Cl)c(F)c1)NC12CC(NC(=O)C3CN(C(=O)[C@H]4C[C@@H]4F)c4cc(Cl)ccc4O3)(C1)C2 (stereo partly drawn) [Compound 138, 6-chloro-N-{3-[2-(4-chloro-3-fluorophenoxy)acetamido]bicyclo[1.1.1]pentan-1-yl}-4-[(1R,2S)-2-fluorocyclopropane-1-carbonyl]-3,4-dihydro-2H-1,4-benzoxazine-2-carboxamide] | 250 to 500
O=C(COc1ccc(Cl)c(F)c1)NC12CCC(NC(=O)C3CNc4cc(Cl)ccc4O3)(CC1)C[C@@H]2O (stereo partly drawn) [Compound 114, 6-chloro-N-{(3S)-4-[2-(4-chloro-3-fluorophenoxy)acetamido]-3-hydroxybicyclo[2.2.2]octan-1-yl}-3,4-dihydro-2H-1,4-benzoxazine-2-carboxamide] | < 10
O=C(COc1ccc(Cl)c(F)c1)NC12CC(NC(=O)C3CN(C(=O)C4CCOCC4)c4cc(Cl)ccc4O3)(C1)C2 (stereo not drawn) [Compound 151, 6-chloro-N-{3-[2-(4-chloro-3-fluorophenoxy)acetamido]bicyclo[1.1.1]pentan-1-yl}-4-(oxane-4-carbonyl)-3,4-dihydro-2H-1,4-benzoxazine-2-carboxamide] | 500 to 2000
O=C(COc1ccc(Cl)c(F)c1)NC12CC(NC(=O)C3CN(C(=O)CCCC(F)(F)F)c4cc(Cl)ccc4O3)(C1)C2 (stereo not drawn) [Compound 167, 6-chloro-N-{3-[2-(4-chloro-3-fluorophenoxy)acetamido]bicyclo[1.1.1]pentan-1-yl}-4-(5,5,5-trifluoropentanoyl)-3,4-dihydro-2H-1,4-benzoxazine-2-carboxamide] | 250 to 500
CSN1CC(C(=O)NC23CC(NC(=O)COc4ccc(Cl)c(F)c4)(C2)C3)Oc2ccc(Cl)cc21 (stereo not drawn) [Compound 172, 6-chloro-N-{3-[2-(4-chloro-3-fluorophenoxy)acetamido]bicyclo[1.1.1]pentan-1-yl}-4-(methylsulfanyl)-3,4-dihydro-2H-1,4-benzoxazine-2-carboxamide] | < 10
O=C(COc1ccc(Cl)c(F)c1)NC12CC(NC(=O)C3COc4cc(F)c(F)cc4O3)(C1)C2 (stereo not drawn) [Compound 118, N-{3-[2-(4-chloro-3-fluorophenoxy)acetamido]bicyclo[1.1.1]pentan-1-yl}-6,7-difluoro-2,3-dihydro-1,4-benzodioxine-2-carboxamide] | < 10
O=C(COc1ccc(Cl)c(F)c1)NC12CC(NC(=O)[C@@H]3CNc4cc(Cl)ccc4O3)(C1)C2 (single isomer, unassigned) [Compound 103] | < 10
O=C(COc1ccc(Cl)c(F)c1)NC12CC(NC(=O)C3CN(C(=O)C4(F)CC4)c4cc(Cl)ccc4O3)(C1)C2 (stereo not drawn) [Compound 140, 6-chloro-N-{3-[2-(4-chloro-3-fluorophenoxy)acetamido]bicyclo[1.1.1]pentan-1-yl}-4-(1-fluorocyclopropane-1-carbonyl)-3,4-dihydro-2H-1,4-benzoxazine-2-carboxamide] | 50 to 250
O=C(CN1CCc2cc(Cl)ccc21)NC12CCC(NC(=O)COc3ccc(Cl)c(F)c3)(CC1)[C@@H](O)C2 [Compound 101, 2-(5-chloro-2,3-dihydro-1H-indol-1-yl)-N-{(3S)-4-[2-(4-chloro-3-fluorophenoxy)acetamido]-3-hydroxybicyclo[2.2.2]octan-1-yl}acetamide] | 500 to 2000
O=C(COc1ccc(Cl)c(F)c1)NC12CC(NC(=O)[C@H]3CNc4cc(Cl)ccc4O3)(C1)C2 (single isomer, unassigned) [Compound 102] | < 10
O=C(COc1ccc(Cl)c(F)c1)NC12CCC(NC(=O)C3COc4ccccc4O3)(CC1)[C@H](O)C2 (stereo partly drawn) [Compound 123, N-{(2R)-4-[2-(4-chloro-3-fluorophenoxy)acetamido]-2-hydroxybicyclo[2.2.2]octan-1-yl}-2,3-dihydro-1,4-benzodioxine-2-carboxamide] | 250 to 500
CC(C)(C)OC(=O)CN1CC(C(=O)NC23CCC(NC(=O)COc4ccc(Cl)c(F)c4)(CC2)[C@@H](O)C3)Oc2ccc(Cl)cc21 (stereo partly drawn) [Compound 185, tert-butyl [6-chloro-2-({(3S)-4-[2-(4-chloro-3-fluorophenoxy)acetamido]-3-hydroxybicyclo[2.2.2]octan-1-yl}carbamoyl)-2,3-dihydro-4H-1,4-benzoxazin-4-yl]acetate] | 50 to 250
O=C(COc1ccc(F)c(F)c1)NC12CC(NC(=O)C3COc4cc(Cl)c(Cl)cc4O3)(C1)C2 (stereo not drawn) [Compound 117, 6,7-dichloro-N-{3-[2-(3,4-difluorophenoxy)acetamido]bicyclo[1.1.1]pentan-1-yl}-2,3-dihydro-1,4-benzodioxine-2-carboxamide] | < 10
O=C(NC12CC(NC(=O)C3COc4cc(Cl)c(Cl)cc4O3)(C1)C2)c1cnc(C(F)F)cn1 (stereo not drawn) [Compound 133, N-{3-[(6,7-dichloro-2,3-dihydro-1,4-benzodioxine-2-carbonyl)amino]bicyclo[1.1.1]pentan-1-yl}-5-(difluoromethyl)pyrazine-2-carboxamide] | 10 to 50
COC(C)(C)CN1CC(C(=O)NC23CC(NC(=O)COc4ccc(Cl)c(F)c4)(C2)C3)Oc2ccc(Cl)cc21 (stereo not drawn) [Compound 187, 6-chloro-N-{3-[2-(4-chloro-3-fluorophenoxy)acetamido]bicyclo[1.1.1]pentan-1-yl}-4-(2-methoxy-2-methylpropyl)-3,4-dihydro-2H-1,4-benzoxazine-2-carboxamide] | 10 to 50
O=C(COc1ccc(Cl)c(F)c1)NC12CC(NC(=O)C3CNc4cc(Cl)ccc4O3)(C1)C2 (stereo not drawn) [Compound 113, 6-chloro-N-{3-[2-(4-chloro-3-fluorophenoxy)acetamido]bicyclo[1.1.1]pentan-1-yl}-3,4-dihydro-2H-1,4-benzoxazine-2-carboxamide] | < 10
CS(=O)(=O)N1CC(C(=O)NC23CC(NC(=O)COc4ccc(Cl)c(F)c4)(C2)C3)Oc2ccc(Cl)cc21 (stereo not drawn) [Compound 168, 6-chloro-N-{3-[2-(4-chloro-3-fluorophenoxy)acetamido]bicyclo[1.1.1]pentan-1-yl}-4-(methanesulfonyl)-3,4-dihydro-2H-1,4-benzoxazine-2-carboxamide] | 50 to 250
O=C(COc1ccc(Cl)c(F)c1)NC12CCC(NC(=O)[C@@H]3CCc4cc(F)ccc4O3)(CC1)C[C@@H]2O [Compound 105, (2S)—N-{(3S)-4-[2-(4-chloro-3-fluorophenoxy)acetamido]-3-hydroxybicyclo[2.2.2]octan-1-yl}-6-fluoro-3,4-dihydro-2H-1-benzopyran-2-carboxamide] | < 10
O=C(COc1ccc(Cl)c(F)c1)NC12CC(NC(=O)C3CCc4cc(Cl)ccc4O3)(C1)C2 (stereo not drawn) [Compound 204, 6-chloro-N-{3-[2-(4-chloro-3-fluorophenoxy)acetamido]bicyclo[1.1.1]pentan-1-yl}-3,4-dihydro-2H-1-benzopyran-2-carboxamide] | < 10
